Source: patent publication US9302999B2, “Substituted triazoles as herbicides” (E. I. DU PONT DE NEMOURS AND COMPANY, priority 2012, dated 2016)
Where two headings read alike, the source gives them in different places.

Key:
Type in all cases: in vivo
[1] = test system: ragweed (common ragweed, Ambrosia elation); test: Test C pre-/postemergence: ragweed
In short: (§1)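 Visual injury scored 0–100 (100 = complete control) against untreated controls after 13–15 greenhouse days. Surfactant-containing solvent formulations applied either to soil after sowing (loam/sand) or over 1- to 4-leaf plants, 2–18 cm tall.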

[2] = test system: morningglory (Ipomoea coccinea); test: Test C pre-/postemergence: morningglory
In short: as §1

[3] = test system: chickweed (common chickweed, Stellaria media); test: Test C postemergence: chickweed
In short: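 Response values are visual ratings, 0 (no effect) to 100 (complete control), made by comparison with untreated controls 13 to 15 days after postemergence treatment of greenhouse-grown potted plants that were 2 to 18 cm high at spraying.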

[4] = test system: crabgrass, large (large crabgrass, Digitaria sanguinalis); test: Test A pre-/postemergence: crabgrass, large; conditions: for pest or weed control at 125 g/ha / pest or weed control at 500 g/ha: Digitaria sanguinalis, 240 h
In short: (§2)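 Each species received preemergence soil-directed spraying and, at the same time, postemergence treatment of seedlings 2–10 cm tall. Formulation: non-phytotoxic solvent mixture including surfactant. Response assessed visually about ten days on, relative to untreated controls, 0–100 scale.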

[5] = test system: wheat (Triticum aestivum); test: Test A pre-/postemergence: wheat; conditions: for plant injury at 125 g/ha / plant injury at 500 g/ha: Triticum aestivum, 240 h
In short: as §2

[6] = test system: velvetleaf (Abutilon theophrasti); test: Test A pre-/postemergence: velvetleaf; conditions: for pest or weed control at 125 g/ha / pest or weed control at 500 g/ha: Abutilon theophrasti, 240 h
In short: as §2

[7] = test system: pigweed (Amaranthus retroflexus); test: Test A pre-/postemergence: pigweed; conditions: for pest or weed control at 125 g/ha / pest or weed control at 500 g/ha: Amaranthus retroflexus, 240 h
In short: as §2

[8] = test system: blackgrass (Alopecurus myosuroides); test: Test C pre-/postemergence: blackgrass
In short: as §1

[9] = test system: foxtail, giant (giant foxtail, Setaria faberii); test: Test A pre-/postemergence: foxtail, giant; conditions: for pest or weed control at 125 g/ha / pest or weed control at 500 g/ha: Setaria faberi, 240 h
In short: as §2

[10] = test system: barnyardgrass (Echinochloa crus-galli); test: Test B flooded paddy: barnyardgrass; conditions: Flood, applied to paddy water at 2-leaf stage, visually evaluated after 13 to 15 days
In short: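 Greenhouse assay lasting 13 to 15 days. Treatment was into water flooding pots 3 cm deep, at the 2-leaf stage, with that level sustained afterwards. Scores compare treated with control plants visually, 100 denoting complete control and 0 no effect; a dash marks no test result.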

[11] = Postemergence, 31 g ai/ha, scale 0 to 100 (0 no effect, 100 complete control)
[12] = Postemergence, 62 g ai/ha, scale 0 to 100 (0 no effect, 100 complete control)
[13] = Postemergence, 250 g ai/ha, scale 0 to 100
[14] = Preemergence, 31 g ai/ha, scale 0 (no effect) to 100 (complete control)
[15] = Preemergence, 62 g ai/ha, scale of 0 to 100, 0 is no effect, 100 is complete control
[16] = Preemergence, 125 g ai/ha, scale 0 to 100, 0 no effect, 100 complete control
[17] = Preemergence, 250 g ai/ha, scale 0 to 100, 0 no effect, 100 complete control
[18] = 31 g ai/ha, scale 0 to 100 (0 no effect, 100 complete control)
[19] = 62 g ai/ha, scale 0 to 100 (0 no effect, 100 complete control)
[20] = 125 g ai/ha, scale 0 to 100, 0 no effect, 100 complete control
[21] = Postemergence, 125 g ai/ha, scale 0 to 100, 0 no effect, 100 complete control
[22] = Postemergence, 250 g ai/ha, scale 0 to 100 (0 no effect, 100 complete control)
[23] = Postemergence, 125 g ai/ha, 0 to 100 scale, 0 is no effect, 100 is complete control
[24] = Postemergence, 500 g ai/ha, 0 to 100 scale, 0 is no effect, 100 is complete control
[25] = Preemergence, 125 g ai/ha, 0 to 100 scale where 0 is no effect and 100 is complete control
[26] = Preemergence, 500 g ai/ha, 0 to 100 scale (0 no effect, 100 complete control)

## CCOc1nn(-c2ccc(C(F)(F)F)cc2)nc1Cc1ccnc(C(F)(F)F)c1 [Compound 164, 4-[[5-ethoxy-2-[4-(trifluoromethyl)phenyl]-2H-1,2,3-triazol-4-yl]methyl]-2-(trifluoromethyl)pyridine]
[1]; [11]
  Plant response rating, Ragweed: 50
[1]; [12]
  Plant response rating, Ragweed: 50
[1]; [13]
  Plant response rating, Ragweed: 60
[1]; [14]
  Plant response rating, Ragweed: 20
[1]; [15]
  Plant response rating, Ragweed: 20
[1]; [16]
  Plant response rating, Ragweed: 25
[1]; [17]
  Plant response rating, Ragweed: 30
[2]; [11]
  Plant response rating, Morningglory: 50
[2]; [12]
  Plant response rating, Morningglory: 60
[2]; [13]
  Plant response rating, Morningglory: 75
[2]; [14]
  Plant response rating, Morningglory: 5
[2]; [15]
  Plant response rating, Morningglory: 15
[2]; [16]
  Plant response rating, Morningglory: 25
[2]; [17]
  Plant response rating, Morningglory: 45
[3]; [18]
  Plant response rating, Chickweed: 10
[3]; [19]
  Plant response rating, Chickweed: 40
[3]; [20]
  Plant response rating, Chickweed: 45
[3]; 250 g ai/ha, scale 0 to 100
  Plant response rating, Chickweed: 45
[4]; post-emergence, Postemergence, 125 g ai/ha, 0 to 100 scale, 0 is no effect, 100 is complete control, read-out: Plant response rating, Crabgrass, Large
  pest or weed control at 125 g/ha: 90%
[4]; post-emergence, Postemergence, 500 g ai/ha, 0 to 100 scale, 0 is no effect, 100 is complete control, read-out: Crabgrass, Large plant response rating
  pest or weed control at 500 g/ha: 90%
[4]; pre-emergence, Preemergence, 125 g ai/ha, 0 to 100 scale where 0 is no effect and 100 is complete control, read-out: Plant response rating, Crabgrass, Large
  pest or weed control at 125 g/ha: 100%
[4]; pre-emergence, Preemergence, 500 g ai/ha, 0 to 100 scale (0 no effect, 100 complete control), read-out: Plant response rating, Crabgrass, Large
  pest or weed control at 500 g/ha: 100%
[5]; post-emergence, Postemergence, 125 g ai/ha, 0 to 100 scale, 0 is no effect, 100 is complete control, read-out: Plant response rating, Wheat
  plant injury at 125 g/ha: 50%
[5]; post-emergence, Postemergence, 500 g ai/ha, 0 to 100 scale, 0 is no effect, 100 is complete control, read-out: Wheat plant response rating
  plant injury at 500 g/ha: 60%
[5]; pre-emergence, Preemergence, 125 g ai/ha, 0 to 100 scale where 0 is no effect and 100 is complete control, read-out: Plant response rating, Wheat
  plant injury at 125 g/ha: 50%
[5]; pre-emergence, Preemergence, 500 g ai/ha, 0 to 100 scale (0 no effect, 100 complete control), read-out: Plant response rating, Wheat
  plant injury at 500 g/ha: 60%
[6]; post-emergence, Postemergence, 125 g ai/ha, 0 to 100 scale, 0 is no effect, 100 is complete control, read-out: Plant response rating, Velvetleaf
  pest or weed control at 125 g/ha: 100%
[6]; post-emergence, Postemergence, 500 g ai/ha, 0 to 100 scale, 0 is no effect, 100 is complete control, read-out: Velvetleaf plant response rating
  pest or weed control at 500 g/ha: 100%
[6]; pre-emergence, Preemergence, 125 g ai/ha, 0 to 100 scale where 0 is no effect and 100 is complete control, read-out: Plant response rating, Velvetleaf
  pest or weed control at 125 g/ha: 80%
[6]; pre-emergence, Preemergence, 500 g ai/ha, 0 to 100 scale (0 no effect, 100 complete control), read-out: Plant response rating, Velvetleaf
  pest or weed control at 500 g/ha: 100%
[7]; post-emergence, Postemergence, 125 g ai/ha, 0 to 100 scale, 0 is no effect, 100 is complete control, read-out: Plant response rating, Pigweed
  pest or weed control at 125 g/ha: 100%
[7]; post-emergence, Postemergence, 500 g ai/ha, 0 to 100 scale, 0 is no effect, 100 is complete control, read-out: Pigweed plant response rating
  pest or weed control at 500 g/ha: 100%
[7]; pre-emergence, Preemergence, 125 g ai/ha, 0 to 100 scale where 0 is no effect and 100 is complete control, read-out: Plant response rating, Pigweed
  pest or weed control at 125 g/ha: 100%
[7]; pre-emergence, Preemergence, 500 g ai/ha, 0 to 100 scale (0 no effect, 100 complete control), read-out: Plant response rating, Pigweed
  pest or weed control at 500 g/ha: 100%
[8]; [11]
  Plant response rating, Blackgrass: 5
[8]; [12]
  Plant response rating, Blackgrass: 5
[8]; [21]
  Plant response rating, Blackgrass: 15
[8]; [13]
  Plant response rating, Blackgrass: 15
[8]; [14]
  Plant response rating, Blackgrass: 5
[8]; [15]
  Plant response rating, Blackgrass: 10
[8]; [16]
  Plant response rating, Blackgrass: 60
[8]; [17]
  Plant response rating, Blackgrass: 70
[9]; post-emergence, Postemergence, 125 g ai/ha, 0 to 100 scale, 0 is no effect, 100 is complete control, read-out: Plant response rating, Foxtail, Giant
  pest or weed control at 125 g/ha: 90%
[9]; post-emergence, Postemergence, 500 g ai/ha, 0 to 100 scale, 0 is no effect, 100 is complete control, read-out: Foxtail, Giant plant response rating
  pest or weed control at 500 g/ha: 90%
[9]; pre-emergence, Preemergence, 125 g ai/ha, 0 to 100 scale where 0 is no effect and 100 is complete control, read-out: Plant response rating, Foxtail, Giant
  pest or weed control at 125 g/ha: 100%
[9]; pre-emergence, Preemergence, 500 g ai/ha, 0 to 100 scale (0 no effect, 100 complete control), read-out: Plant response rating, Foxtail, Giant
  pest or weed control at 500 g/ha: 100%
[10]; 125 g ai/ha
  Plant response rating, Barnyardgrass (0 to 100 scale, 0 is no effect, 100 is complete control): 60

## CCCc1nn(-c2ccc(F)cc2)nc1Oc1ccnc(C(F)(F)F)c1 [Compound 168]
[1]; [11]
  Plant response rating, Ragweed: 65
[1]; [12]
  Plant response rating, Ragweed: 65
[1]; [21]
  Plant response rating, Ragweed: 65
[1]; [22]
  Plant response rating, Ragweed: 80
[1]; [14]
  Plant response rating, Ragweed: 10
[1]; [15]
  Plant response rating, Ragweed: 30
[1]; [16]
  Plant response rating, Ragweed: 80
[1]; [17]
  Plant response rating, Ragweed: 80
[2]; [11]
  Plant response rating, Morningglory: 50
[2]; [12]
  Plant response rating, Morningglory: 80
[2]; [21]
  Plant response rating, Morningglory: 90
[2]; [22]
  Plant response rating, Morningglory: 90
[2]; [14]
  Plant response rating, Morningglory: 45
[2]; [15]
  Plant response rating, Morningglory: 55
[2]; [16]
  Plant response rating, Morningglory: 55
[2]; [17]
  Plant response rating, Morningglory: 80
[3]; [18]
  Plant response rating, Chickweed: 80
[3]; [19]
  Plant response rating, Chickweed: 80
[3]; [20]
  Plant response rating, Chickweed: 90
[3]; 250 g ai/ha, scale 0 to 100
  Plant response rating, Chickweed: 100
[4]; [23]
  Plant response rating, Crabgrass, Large: 90
[4]; [24]
  Crabgrass, Large plant response rating: 90
[4]; [25]
  Plant response rating, Crabgrass, Large: 100
[4]; [26]
  Plant response rating, Crabgrass, Large: 100
[5]; [23]
  Plant response rating, Wheat: 40
[5]; [24]
  Wheat plant response rating: 50
[5]; [25]
  Plant response rating, Wheat: 40
[5]; [26]
  Plant response rating, Wheat: 60
[6]; [23]
  Plant response rating, Velvetleaf: 100
[6]; [24]
  Velvetleaf plant response rating: 100
[6]; [25]
  Plant response rating, Velvetleaf: 30
[6]; [26]
  Plant response rating, Velvetleaf: 90
[7]; [23]
  Plant response rating, Pigweed: 100
[7]; [24]
  Pigweed plant response rating: 100
[7]; [25]
  Plant response rating, Pigweed: 100
[7]; [26]
  Plant response rating, Pigweed: 100
[8]; [11]
  Plant response rating, Blackgrass: 45
[8]; [12]
  Plant response rating, Blackgrass: 45
[8]; [21]
  Plant response rating, Blackgrass: 80
[8]; [13]
  Plant response rating, Blackgrass: 80
[8]; [14]
  Plant response rating, Blackgrass: 90
[8]; [15]
  Plant response rating, Blackgrass: 90
[8]; [16]
  Plant response rating, Blackgrass: 95
[8]; [17]
  Plant response rating, Blackgrass: 98
[9]; [23]
  Plant response rating, Foxtail, Giant: 90
[9]; [24]
  Foxtail, Giant plant response rating: 90
[9]; [25]
  Plant response rating, Foxtail, Giant: 100
[9]; [26]
  Plant response rating, Foxtail, Giant: 100
[10]; 250 g ai/ha
  Plant response rating, Barnyardgrass (0 to 100 scale, 0 is no effect, 100 is complete control): 80
